Several values for one entry are separate records, joined by “and”; a condition that tells them apart may be missing. Equal entries are not always repeated.
Assays:
[1] = target: HDAC2 (Homo sapiens, UniProt Q92769); test: HDAC-Glo assay; type: biochemical; set-up: purchased BPS Bioscience 50002; settings: for EC50: read-out: log EC50 from dose-dependent HDAC inhibition curves (converted); for HDAC2 relative activity: sheet S2b
Description: (§1) To validate the inhibition of HDACs by LA and LM and elaborate on the structure-activity relationship (SAR) of enantiomers as well as oxidized versus reduced forms of the molecules, we performed enzyme activity assays for recombinant HDAC1,2,3,6,8 as well as FRET-based binding assay for recombinant HDAC10.
(§2) The experiments were performed according to ref. [48]. […] Drug dosing was performed with a D300e Digital Dispenser (Tecan). HDACs (7 ng/mL for HDAC1, 25 ng/mL for HDAC2, 200 ng/mL for HDAC3/Ncor2 complex, 100 ng/mL for HDAC6, 200 ng/mL for HDAC8) and inhibitors were incubated together at room temperature (RT) for 30 min. After the addition of the HDAC-Glo™ I/II reagent, plates were shaken (800 rpm orbital shaker, 30 s), centrifuged (300 g, 1 min), and incubated at RT for 30 min. Luminescence was detected with a CLARIOstar (BMG Labtech) plate reader.

[2] = target: T1, HDAC6 (Homo sapiens, UniProt Q9UBN7); test: HDAC-Glo assay; type: biochemical; set-up: purchased BPS Bioscience 50006; settings: for EC50: read-out: log EC50 from dose-dependent HDAC inhibition curves (converted)
T1 sequence (Q9UBN7 1-1215): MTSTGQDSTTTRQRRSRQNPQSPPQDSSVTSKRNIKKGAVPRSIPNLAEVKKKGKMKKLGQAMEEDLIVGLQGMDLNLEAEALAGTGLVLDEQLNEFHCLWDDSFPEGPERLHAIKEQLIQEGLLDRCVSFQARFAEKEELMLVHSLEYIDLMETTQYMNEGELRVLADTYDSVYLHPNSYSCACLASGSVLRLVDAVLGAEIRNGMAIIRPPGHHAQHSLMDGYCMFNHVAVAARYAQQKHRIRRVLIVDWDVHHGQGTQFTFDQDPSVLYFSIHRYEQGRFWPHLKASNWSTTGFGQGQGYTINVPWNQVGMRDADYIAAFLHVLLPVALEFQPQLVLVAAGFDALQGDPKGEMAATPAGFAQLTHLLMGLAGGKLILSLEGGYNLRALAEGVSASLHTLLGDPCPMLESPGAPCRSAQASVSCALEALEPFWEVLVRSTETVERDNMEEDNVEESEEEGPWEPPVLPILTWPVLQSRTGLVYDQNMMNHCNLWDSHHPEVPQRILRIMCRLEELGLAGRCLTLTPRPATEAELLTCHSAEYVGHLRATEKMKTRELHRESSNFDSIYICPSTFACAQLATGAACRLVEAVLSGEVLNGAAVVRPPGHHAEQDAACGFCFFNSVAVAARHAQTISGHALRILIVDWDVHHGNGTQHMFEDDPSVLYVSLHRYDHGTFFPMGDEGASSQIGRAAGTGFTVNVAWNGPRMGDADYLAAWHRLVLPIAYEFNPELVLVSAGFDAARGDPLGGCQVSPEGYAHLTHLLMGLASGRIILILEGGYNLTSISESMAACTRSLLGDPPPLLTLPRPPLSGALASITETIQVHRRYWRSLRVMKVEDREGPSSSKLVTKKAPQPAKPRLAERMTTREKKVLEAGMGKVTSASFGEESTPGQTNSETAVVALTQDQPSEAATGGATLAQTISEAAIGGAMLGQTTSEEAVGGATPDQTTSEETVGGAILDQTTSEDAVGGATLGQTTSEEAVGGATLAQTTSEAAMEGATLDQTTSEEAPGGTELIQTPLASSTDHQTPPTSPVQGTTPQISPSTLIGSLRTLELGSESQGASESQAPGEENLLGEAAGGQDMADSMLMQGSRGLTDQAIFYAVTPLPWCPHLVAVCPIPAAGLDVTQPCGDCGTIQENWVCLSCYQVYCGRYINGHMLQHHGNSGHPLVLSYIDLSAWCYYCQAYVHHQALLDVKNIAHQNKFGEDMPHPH
Description: as §1, §2

[3] = 0.5 M TCEP, log10 M -3.30103, 3 technical replicates
[4] = 0.5 M TCEP, log10 M -3.82945, 3 technical replicates
[5] = 0.5 M TCEP, log10 M -4.35788, 3 technical replicates
[6] = 0.5 M TCEP, log10 M -4.88629, 3 technical replicates
[7] = 0.5 M TCEP, log10 M -5.41477, 3 technical replicates
[8] = 0.5 M TCEP, log10 M -5.94309, 3 technical replicates
[9] = 0.5 M TCEP, log10 M -6.47756, 3 technical replicates
[10] = 0.5 M TCEP, log10 M -6.87615, 3 technical replicates
[11] = no TCEP, log10 M -3.30103, 3 technical replicates
[12] = no TCEP, log10 M -3.82945, 3 technical replicates
[13] = no TCEP, log10 M -4.35788, 3 technical replicates
[14] = no TCEP, log10 M -4.88629, 3 technical replicates
[15] = no TCEP, log10 M -5.41477, 3 technical replicates
[16] = no TCEP, log10 M -5.94309, 3 technical replicates
[17] = no TCEP, log10 M -6.47756, 3 technical replicates
[18] = no TCEP, log10 M -6.87615, 3 technical replicates

Sequence of HDAC2 (Q92769 whole entry): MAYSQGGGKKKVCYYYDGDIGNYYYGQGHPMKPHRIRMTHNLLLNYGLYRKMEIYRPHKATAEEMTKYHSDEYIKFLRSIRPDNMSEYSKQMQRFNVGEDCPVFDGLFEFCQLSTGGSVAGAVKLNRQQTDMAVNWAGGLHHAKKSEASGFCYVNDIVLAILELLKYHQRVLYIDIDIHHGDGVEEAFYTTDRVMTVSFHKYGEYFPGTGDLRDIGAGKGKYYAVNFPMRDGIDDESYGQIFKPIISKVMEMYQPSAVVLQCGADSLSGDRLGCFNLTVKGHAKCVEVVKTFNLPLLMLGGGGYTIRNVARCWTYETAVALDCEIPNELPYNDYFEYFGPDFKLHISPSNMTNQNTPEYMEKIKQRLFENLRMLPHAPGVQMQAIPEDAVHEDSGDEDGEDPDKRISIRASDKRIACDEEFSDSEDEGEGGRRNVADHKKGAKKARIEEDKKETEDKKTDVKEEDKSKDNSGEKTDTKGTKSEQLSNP

## O=C(O)CCCCC1CCSS1 (racemic) [(R/S)-LA, (R/S)-lipoic acid]
[1]; [3]
  HDAC enzymatic activity (normalized luminescence): 4.517 and 4.579 and 4.669
[1]; [4]
  HDAC enzymatic activity (normalized luminescence): 14.6838 and 15.1597 and 14.9231
[1]; [5]
  HDAC enzymatic activity (normalized luminescence): 37.5127 and 37.9281 and 38.3803
[1]; [6]
  HDAC enzymatic activity (normalized luminescence): 65.6665 and 63.7639 and 65.7588
[1]; [7]
  HDAC enzymatic activity (normalized luminescence): 83.5292 and 85.2785 and 86.439
[1]; [8]
  HDAC enzymatic activity (normalized luminescence): 90.5846 and 91.5425 and 93.8157
[1]; [9]
  HDAC enzymatic activity (normalized luminescence): 95.0155 and 95.0012 and 98.6939
[1]; [10]
  HDAC enzymatic activity (normalized luminescence): 97.7664 and 98.3233 and 101.153
[1]; [11]
  HDAC enzymatic activity (normalized luminescence): 44.2753 and 42.6833 and 42.8281
[1]; [12]
  HDAC enzymatic activity (normalized luminescence): 74.0269 and 74.0487 and 74.0611
[1]; [13]
  HDAC enzymatic activity (normalized luminescence): 91.4647 and 91.3223 and 92.1121
[1]; [14]
  HDAC enzymatic activity (normalized luminescence): 96.4611 and 96.3058 and 97.9917
[1]; [15]
  HDAC enzymatic activity (normalized luminescence): 98.5234 and 99.2037 and 100.016
[1]; [16]
  HDAC enzymatic activity (normalized luminescence): 96.9658 and 96.4307 and 98.1115
[1]; [17]
  HDAC enzymatic activity (normalized luminescence): 98.5723 and 98.9021 and 101.472
[1]; [18]
  HDAC enzymatic activity (normalized luminescence): 102.033 and 100.085 and 101.747
[1]
  EC50: 27.9 µM
[1]; log conc -3.30103
  HDAC2 relative activity: 1.632 and 1.608 and 1.6104
[1]; log conc -3.82945
  HDAC2 relative activity: 4.377 and 4.239 and 4.397
[1]; log conc -4.35788
  HDAC2 relative activity: 14.1348 and 14.1034 and 14.0027
[1]; log conc -4.88629
  HDAC2 relative activity: 32.6794 and 32.1097 and 32.0348
[1]; log conc -5.41477
  HDAC2 relative activity: 62.7872 and 63.5079 and 63.5078
[1]; log conc -5.94309
  HDAC2 relative activity: 83.5078 and 83.413 and 83.6174
[1]; log conc -6.47756
  HDAC2 relative activity: 91.2192 and 90.5813 and 91.6447
[1]; log conc -6.87615
  HDAC2 relative activity: 99.2152 and 97.4208 and 97.0893
[2]; [3]
  HDAC enzymatic activity (normalized luminescence): 1.458 and 1.424 and 1.356
[2]; [4]
  HDAC enzymatic activity (normalized luminescence): 2.832 and 2.728 and 2.83
[2]; [5]
  HDAC enzymatic activity (normalized luminescence): 6.139 and 5.789 and 5.799
[2]; [6]
  HDAC enzymatic activity (normalized luminescence): 13.455 and 13.5196 and 13.8559
[2]; [7]
  HDAC enzymatic activity (normalized luminescence): 31.3499 and 32.1006 and 33.4073
[2]; [8]
  HDAC enzymatic activity (normalized luminescence): 55.9078 and 57.6015 and 56.5157
[2]; [9]
  HDAC enzymatic activity (normalized luminescence): 76.0987 and 79.5289 and 82.7102
[2]; [10]
  HDAC enzymatic activity (normalized luminescence): 85.7363 and 87.7513 and 88.064
[2]; [11]
  HDAC enzymatic activity (normalized luminescence): 23.0918 and 22.3431 and 22.7816
[2]; [12]
  HDAC enzymatic activity (normalized luminescence): 56.1761 and 58.3464 and 57.3647
[2]; [13]
  HDAC enzymatic activity (normalized luminescence): 82.4637 and 85.6042 and 82.8934
[2]; [14]
  HDAC enzymatic activity (normalized luminescence): 93.4335 and 99.2455 and 95.9681
[2]; [15]
  HDAC enzymatic activity (normalized luminescence): 97.1057 and 101.846 and 99.5994
[2]; [16]
  HDAC enzymatic activity (normalized luminescence): 97.3023 and 99.1974 and 100.246
[2]; [17]
  HDAC enzymatic activity (normalized luminescence): 99.4261 and 102.712 and 105.54
[2]; [18]
  HDAC enzymatic activity (normalized luminescence): 96.4036 and 90.044 and 88.9734
[2]
  EC50: 1.73 µM
[2]; sheet S2b, log conc -3.30103
  HDAC6 relative activity: 1.144 and 1.081 and 1.088
[2]; sheet S2b, log conc -3.82945
  HDAC6 relative activity: 2.37 and 2.452 and 2.46
[2]; sheet S2b, log conc -4.35788
  HDAC6 relative activity: 4.674 and 4.632 and 4.542
[2]; sheet S2b, log conc -4.88629
  HDAC6 relative activity: 10.1866 and 10.4131 and 10.6467
[2]; sheet S2b, log conc -5.41477
  HDAC6 relative activity: 23.025 and 23.2631 and 23.7333
[2]; sheet S2b, log conc -5.94309
  HDAC6 relative activity: 48.9979 and 48.9603 and 49.8705
[2]; sheet S2b, log conc -6.47756
  HDAC6 relative activity: 72.291 and 73.4771 and 73.4953
[2]; sheet S2b, log conc -6.87615
  HDAC6 relative activity: 86.8078 and 88.7475 and 90.3905
[2]; sheet S2d, log conc -3.30103
  HDAC6 relative activity: 1.458 and 1.424 and 1.356
[2]; sheet S2d, log conc -3.82945
  HDAC6 relative activity: 2.832 and 2.728 and 2.83
[2]; sheet S2d, log conc -4.35788
  HDAC6 relative activity: 6.139 and 5.789 and 5.799
[2]; sheet S2d, log conc -4.88629
  HDAC6 relative activity: 13.455 and 13.5196 and 13.8559
[2]; sheet S2d, log conc -5.41477
  HDAC6 relative activity: 31.3499 and 32.1006 and 33.4073
[2]; sheet S2d, log conc -5.94309
  HDAC6 relative activity: 55.9078 and 57.6015 and 56.5157
[2]; sheet S2d, log conc -6.47756
  HDAC6 relative activity: 76.0987 and 79.5289 and 82.7102
[2]; sheet S2d, log conc -6.87615
  HDAC6 relative activity: 85.7363 and 87.7513 and 88.064

## NC(=O)CCCCC1CCSS1 (racemic) [(R/S)-LM, (R/S)-lipoamide]
[1]
  EC50: 6.64 µM
[1]; log conc -3.30103
  HDAC2 relative activity: 71.964 and 72.3177 and 72.1483
[1]; log conc -3.82945
  HDAC2 relative activity: 80.6393 and 80.2369 and 79.5941
[1]; log conc -4.35788
  HDAC2 relative activity: 93.3465 and 95.4258 and 92.7624
[1]; log conc -4.88629
  HDAC2 relative activity: 96.436 and 96.5227 and 94.9323
[1]; log conc -5.41477
  HDAC2 relative activity: 101.607 and 103.068 and 101.387
[1]; log conc -5.94309
  HDAC2 relative activity: 100.457 and 99.1256 and 100.639
[1]; log conc -6.47756
  HDAC2 relative activity: 98.6184 and 99.6756 and 101.604
[1]; log conc -6.87615
  HDAC2 relative activity: 101.142 and 100.648 and 102.314
[2]
  EC50: 0.931 µM
[2]; sheet S2b, log conc -3.30103
  HDAC6 relative activity: 75.3248 and 75.1005 and 70.3242
[2]; sheet S2b, log conc -3.82945
  HDAC6 relative activity: 95.4583 and 94.7241 and 92.4168
[2]; sheet S2b, log conc -4.35788
  HDAC6 relative activity: 101.41 and 101.875 and 100.004
[2]; sheet S2b, log conc -4.88629
  HDAC6 relative activity: 103.293 and 100.632 and 100.653
[2]; sheet S2b, log conc -5.41477
  HDAC6 relative activity: 102.294 and 103.492 and 99.8033
[2]; sheet S2b, log conc -5.94309
  HDAC6 relative activity: 101.321 and 102.657 and 100.612
[2]; sheet S2b, log conc -6.47756
  HDAC6 relative activity: 107.714 and 104.061 and 103.825
[2]; sheet S2b, log conc -6.87615
  HDAC6 relative activity: 97.9564 and 94.6265 and 91.4846
